Results on 27 compounds are retold here after US20260042755A1, “GPR6 INVERSE AGONISTS” (MapLight Therapeutics, Inc., priority 2022, published 2026).

The target of one experiment is T1, GPR6 (Homo sapiens, UniProt P46095).
T1 construct: expressed in transfected cells; host or cells: CHO cells
Briefly: GPR6 antagonist functional cAMP assay (LANCE Ultra cAMP TR-FRET, CHO cells stably expressing GPR6). In kind it is cell-based. The settings on record: CHO cells stably expressing GPR6, cAMP assay (Example 24). An outline of the steps:
(§1)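 Cells in Krebs-Ringer buffer with 0.1% BSA and 150 μM Ro 20-1724 PDE inhibitor were exposed to compounds for 45 min at 37 °C (0.1% DMSO). cAMP was read by TR-FRET at 665 nm; IC50s came from 4-parameter fits normalized to DMSO and reference compound.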
Background: Cyclic AMP is a second messenger, typically raised through Gs and lowered through Gi signalling.

A further experiment addresses T2, GPR3 (Homo sapiens, UniProt P46089).
T2 construct: expressed in transfected cells; host or cells: CHO cells
Briefly: GPR3 antagonist functional cAMP assay (LANCE Ultra cAMP TR-FRET, CHO cells stably expressing GPR3). In kind it is cell-based. The settings on record: CHO cells stably expressing GPR3, cAMP assay (Example 24). An outline of the steps: as §1

Molecules are shown by their SMILES.

T1 sequence (P46095 whole entry): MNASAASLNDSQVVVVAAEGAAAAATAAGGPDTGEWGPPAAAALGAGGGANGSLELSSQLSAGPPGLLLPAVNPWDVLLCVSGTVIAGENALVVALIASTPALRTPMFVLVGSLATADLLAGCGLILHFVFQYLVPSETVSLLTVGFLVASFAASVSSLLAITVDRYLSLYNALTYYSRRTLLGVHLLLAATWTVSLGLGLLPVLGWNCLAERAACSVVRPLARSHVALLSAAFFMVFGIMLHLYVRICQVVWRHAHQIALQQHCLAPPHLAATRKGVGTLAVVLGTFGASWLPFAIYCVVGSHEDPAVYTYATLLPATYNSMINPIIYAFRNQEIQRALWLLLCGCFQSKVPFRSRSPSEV
T2 sequence (P46089 whole entry, species assumed): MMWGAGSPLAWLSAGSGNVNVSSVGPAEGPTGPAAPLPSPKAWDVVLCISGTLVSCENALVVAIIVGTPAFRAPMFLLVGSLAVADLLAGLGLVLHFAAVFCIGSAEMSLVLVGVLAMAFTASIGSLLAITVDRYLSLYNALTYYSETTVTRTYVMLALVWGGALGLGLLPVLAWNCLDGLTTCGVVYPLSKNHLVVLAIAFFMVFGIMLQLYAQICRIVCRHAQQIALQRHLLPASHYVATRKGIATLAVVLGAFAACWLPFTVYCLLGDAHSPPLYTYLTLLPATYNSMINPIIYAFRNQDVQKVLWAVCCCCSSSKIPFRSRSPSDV

Turning to `CC(=O)N1CCc2nc(N3CCC(Oc4ccc(F)cc4F)CC3)c(-c3cccc(OC(F)(F)F)n3)nc2C1` [Compound 223, 1-{2-[4-(2,4-difluorophenoxy)piperidin-1-yl]-3-[6-(trifluoromethoxy)pyridin-2-yl]-5H,6H,7H,8H-pyrido[3,4-b]pyrazin-6-yl}ethan-1-one], the concentration for half-maximal inhibition (IC50) (commonly the point on the concentration scale where inhibition reaches its midpoint) was 100 to 1000 nM at GPR6 and 1 to 30 µM against GPR3.

For the compound `Cn1cc(-c2nc3cnc(N)cc3nc2N2CCN(Cc3ccc(F)cc3F)CC2)cn1` [Compound 226, 2-{4-[(2,4-difluorophenyl)methyl]piperazin-1-yl}-3-(1-methyl-1H-pyrazol-4-yl)pyrido[3,4-b]pyrazin-7-amine], the IC50 is less than 100 nM on GPR6 and 1 to 30 µM against GPR3.

Regarding `Cn1cc(-c2nc3cc(Cl)ncc3nc2N2CCN(Cc3ccc(F)cc3F)CC2)cn1` [Compound 227, 1-[7-chloro-2-(1-methyl-1H-pyrazol-4-yl)pyrido[3,4-b]pyrazin-3-yl]-4-[(2,4-difluorophenyl)methyl] piperazine], the figures for the IC50 at GPR6 and at GPR3 were 100 to 1000 nM and 1 to 30 µM, respectively.

For `Cc1cc2nc(N3CCC(Oc4ccc(F)cc4F)CC3)c(-c3cnn(C)c3)nc2cn1` [Compound 228, 4-(2,4-difluorophenoxy)-1-[7-methyl-3-(1-methyl-1H-pyrazol-4-yl)pyrido[3,4-b]pyrazin-2-yl]piperidine], the 50% inhibitory concentration (IC50) was in the range of 100 to 1000 nM at GPR6 and 1 to 30 µM against GPR3.

As to `O=C1CC(N2CCc3nc(N4CCC(Oc5ccc(F)cc5F)CC4)c(-c4cn[nH]c4)nc3C2)CN1` (stereo not drawn) [Compound 229, 4-{2-[4-(2,4-difluorophenoxy)piperidin-1-yl]-3-(1H-pyrazol-4-yl)-5H,6H,7H,8H-pyrido[3,4-b]pyrazin-6-yl}pyrrolidin-2-one], the values for the concentration for half-maximal inhibition (IC50) against GPR6 and at GPR3 were 1000 to 30000 nM and 1 to 30 µM, respectively.

Turning to `COc1cncc(-c2nc3cnc(C)cc3nc2N2CCC(Oc3ccc(F)cc3F)CC2)n1` [Compound 230, 2-{2-[4-(2,4-difluorophenoxy)piperidin-1-yl]-7-methylpyrido[3,4-b]pyrazin-3-yl}-6-methoxypyrazine], the 50% inhibitory concentration (IC50) on GPR6 lay within 1000 to 30000 nM; against GPR3, 1 to 30 µM.

With `CCOc1cncc(-c2nc3c(nc2N2CCC(Oc4ccc(F)cc4F)CC2)CCN(C(C)=O)C3)n1` [Compound 233, 1-{2-[4-(2,4-difluorophenoxy)piperidin-1-yl]-3-(6-ethoxypyrazin-2-yl)-5H,6H,7H,8H-pyrido[3,4-b]pyrazin-6-yl}ethan-1-one], the values for the 50% inhibitory concentration (IC50) against GPR6 and at GPR3 were 1000 to 30000 nM and 1 to 30 µM, respectively.

On to `CC(=O)N1CCc2nc(N3CCC(Oc4ccc(F)cc4F)CC3)c(C3=CC(O)CCC3)nc2C1` (stereo not drawn) [Compound 234, 1-{2-[4-(2,4-difluorophenoxy)piperidin-1-yl]-3-(3-hydroxycyclohex-1-en-1-yl)-5H,6H,7H,8H-pyrido[3,4-b]pyrazin-6-yl}ethan-1-one], for which the figures for the IC50 against GPR6 and on GPR3 were 1000 to 30000 nM and 1 to 30 µM, respectively.

On to `COc1cc(-c2nc3c(nc2N2CCC(Oc4ccc(F)cc4F)CC2)CCN(C(C)=O)C3)cnn1` [Compound 235, 1-{2-[4-(2,4-difluorophenoxy)piperidin-1-yl]-3-(6-methoxypyridazin-4-yl)-5H,6H,7H,8H-pyrido[3,4-b]pyrazin-6-yl}ethan-1-one], for which the IC50 against GPR6 lay in the range of 1000 to 30000 nM; on GPR3 it was 1 to 30 µM.

Consider `CC(=O)N1CCc2nc(N3CCC(Oc4ccc(F)cc4F)CC3)c(C3CCOCC3)nc2C1` [Compound 236, 1-{2-[4-(2,4-difluorophenoxy)piperidin-1-yl]-3-(oxan-4-yl)-5H,6H,7H,8H-pyrido[3,4-b]pyrazin-6-yl}ethan-1-one], for which the half-maximal inhibitory concentration (IC50) against GPR6 fell in the range of 1000 to 30000 nM; on GPR3 it was 1 to 30 µM.

For `CC(=O)N1CCc2nc(N3CCC(Oc4ccc(F)cc4F)CC3)c(C3CCCOC3)nc2C1` (stereo not drawn) [Compound 237, 1-{2-[4-(2,4-difluorophenoxy)piperidin-1-yl]-3-(oxan-3-yl)-5H,6H,7H,8H-pyrido[3,4-b]pyrazin-6-yl}ethan-1-one], the figures for the IC50 at GPR6 and on GPR3 were 1000 to 30000 nM and 1 to 30 µM, respectively.

Take `CC(=O)N1CCc2nc(N3CCC(Oc4ccc(F)cc4F)CC3)c(-c3cncc(OC(F)F)n3)nc2C1` [Compound 239, 1-{3-[6-(difluoromethoxy)pyrazin-2-yl]-2-[4-(2,4-difluorophenoxy)piperidin-1-yl]-5H,6H,7H,8H-pyrido[3,4-b]pyrazin-6-yl}ethan-1-one]: the values for the 50% inhibitory concentration (IC50) against GPR6 and against GPR3 were 1000 to 30000 nM and 1 to 30 µM, respectively.

For the compound `Cn1cc(-c2nc3cnccc3nc2N2CCN(CC3CCCOC3)CC2)cn1` (stereo not drawn) [Compound 241, 1-[3-(1-methyl-1H-pyrazol-4-yl)pyrido[3,4-b]pyrazin-2-yl]-4-[(oxan-3-yl)methyl]piperazine], the IC50 against GPR6 was no less than 30000 nM; against GPR3, no less than 30 µM.

For `Cn1cc(-c2nc3cnccc3nc2N2CCN(CC3CCOCC3)CC2)cn1` [Compound 242, 1-[3-(1-methyl-1H-pyrazol-4-yl)pyrido[3,4-b]pyrazin-2-yl]-4-[(oxan-4-yl)methyl]piperazine], the concentration for half-maximal inhibition (IC50) against GPR6 is no less than 30000 nM; on GPR3, 1 to 30 µM.

For the compound `CC(=O)N1CCc2nc(N3CCC(Oc4ccc(F)cc4F)CC3)c(-c3cncc(Cl)n3)nc2C1` [Compound 243], the results for the 50% inhibitory concentration (IC50) on GPR6 and against GPR3 were 1000 to 30000 nM and 1 to 30 µM, respectively.

`CC(=O)N1CCc2nc(N3CCC(Oc4ccc(F)cc4F)CC3)c(-c3cnn4c3COCC4)nc2C1` [Compound 245, 1-{2-[4-(2,4-difluorophenoxy)piperidin-1-yl]-3-{4H,6H,7H-pyrazolo [3,2-c][1,4]oxazin-3-yl}-5H,6H,7H,8H-pyrido[3,4-b]pyrazin-6-yl}ethan-1-one]: the IC50 against GPR6 lay in the range of 100 to 1000 nM; at GPR3, 1 to 30 µM.

With `Cn1cc(-c2nc3cnccc3nc2N2CCN(CC3CCCCO3)CC2)cn1` (stereo not drawn) [Compound 246, 1-[3-(1-methyl-1H-pyrazol-4-yl)pyrido[3,4-b]pyrazin-2-yl]-4-[(oxan-2-yl)methyl]piperazine], the figures for the IC50 at GPR6 and on GPR3 were no less than 30000 nM and no less than 30 µM, respectively.

In the case of `COC1C=C(c2nc3c(nc2N2CCC(Oc4ccc(F)cc4F)CC2)CCN(C(C)=O)C3)CCC1` (stereo not drawn) [Compound 247, 1-{2-[4-(2,4-difluorophenoxy)piperidin-1-yl]-3-(3-methoxycyclohex-1-en-1-yl)-5H,6H,7H,8H-pyrido[3,4-b]pyrazin-6-yl}ethan-1-one], the values for the half-inhibitory concentration (IC50) at GPR6 and against GPR3 were 100 to 1000 nM and 1 to 30 µM, respectively.

On to `COC1CCCC(c2nc3c(nc2N2CCC(Oc4ccc(F)cc4F)CC2)CCN(C(C)=O)C3)C1` (stereo not drawn) [Compound 248, 1-{2-[4-(2,4-difluorophenoxy)piperidin-1-yl]-3-(3-methoxycyclohexyl)-5H,6H,7H,8H-pyrido[3,4-b]pyrazin-6-yl}ethan-1-one], for which the 50% inhibitory concentration (IC50) against GPR6 lay within 1000 to 30000 nM; at GPR3, 1 to 30 µM.

As to `Cn1cc(-c2nc3cnc(C(O)C4CC4)cc3nc2N2CCC(Oc3ccc(F)cc3F)CC2)cn1` (stereo not drawn) [Compound 250, cyclopropyl(2-(4-(2,4-difluorophenoxy)piperidin-1-yl)-3-(1-methyl-1H-pyrazol-4-yl)pyrido[3,4-b]pyrazin-7-yl)methanol], the IC50 against GPR6 fell in the range of 1000 to 30000 nM; at GPR3 it was 1 to 30 µM.

For the compound `COC(=O)c1cc2nc(N3CCC(Oc4ccc(F)cc4F)CC3)c(-c3cnn(C)c3)nc2cn1` [Compound 251, methyl 2-[4-(2,4-difluorophenoxy)piperidin-1-yl]-3-(1-methyl-1H-pyrazol-4-yl)pyrido[3,4-b]pyrazine-7-carboxylate], the 50% inhibitory concentration (IC50) against GPR6 is 1000 to 30000 nM; against GPR3, 1 to 30 µM.

Consider `CC(=O)N1CCc2nc(N3CCN(Cc4ccccc4F)CC3)c(-c3cnn(C)c3)nc2C1` [Compound 252, 1-(2-{4-[(2-fluorophenyl)methyl]piperazin-1-yl}-3-(1-methyl-1H-pyrazol-4-yl)-5H,6H,7H,8H-pyrido[3,4-b]pyrazin-6-yl)ethan-1-one], for which the IC50 against GPR6 lay within 100 to 1000 nM; at GPR3, 1 to 30 µM.

For `CC(=O)N1CCc2nc(N3CCN(C(=O)c4ccc(F)cc4Cl)CC3)c(-c3cnn(C)c3)nc2C1` [Compound 253, 1-{2-[4-(2-chloro-4-fluorobenzoyl)piperazin-1-yl]-3-(1-methyl-1H-pyrazol-4-yl)-5H,6H,7H,8H-pyrido[3,4-b]pyrazin-6-yl}ethan-1-one], the concentration for half-maximal inhibition (IC50) on GPR6 lay in the range of 1000 to 30000 nM; against GPR3, 1 to 30 µM.

For `COc1ccc(C(=O)N2CCN(c3nc4c(nc3-c3cnn(C)c3)CN(C(C)=O)CC4)CC2)c(F)c1` [Compound 254, 1-{2-[4-(2-fluoro-4-methoxybenzoyl)piperazin-1-yl]-3-(1-methyl-1H-pyrazol-4-yl)-5H,6H,7H,8H-pyrido[3,4-b]pyrazin-6-yl}ethan-1-one], the 50% inhibitory concentration (IC50) against GPR6 fell in the range of 1000 to 30000 nM; against GPR3 it was 1 to 30 µM.

Regarding `CC(=O)N1CCc2nc(N3CCN(C(=O)c4ccc(F)cc4)CC3)c(-c3cnn(C)c3)nc2C1` [Compound 255, 1-{2-[4-(4-fluorobenzoyl)piperazin-1-yl]-3-(1-methyl-1H-pyrazol-4-yl)-5H,6H,7H,8H-pyrido[3,4-b]pyrazin-6-yl}ethan-1-one], the results for the concentration for half-maximal inhibition (IC50) at GPR6 and against GPR3 were 1000 to 30000 nM and 1 to 30 µM, respectively.

Take `CC(=O)N1CCc2nc(N3CCN(Cc4cccc(F)c4)CC3)c(-c3cnn(C)c3)nc2C1` [Compound 256, 1-(2-{4-[(3-fluorophenyl)methyl]piperazin-1-yl}-3-(1-methyl-1H-pyrazol-4-yl)-5H,6H,7H,8H-pyrido[3,4-b]pyrazin-6-yl)ethan-1-one]: the concentration for half-maximal inhibition (IC50) was in the range of 1000 to 30000 nM against GPR6 and 1 to 30 µM on GPR3.

With `CC(=O)N1CCc2nc(N3CCN(Cc4ccc(F)cc4)CC3)c(-c3cnn(C)c3)nc2C1` [Compound 257, 1-(2-{4-[(4-fluorophenyl)methyl]piperazin-1-yl}-3-(1-methyl-1H-pyrazol-4-yl)-5H,6H,7H,8H-pyrido[3,4-b]pyrazin-6-yl)ethan-1-one], the IC50 against GPR6 lay in the range of 1000 to 30000 nM; against GPR3, 1 to 30 µM.
